ChEMBL document CHEMBL3580659, “One-pot multicomponent synthesis of indole incorporated thiazolylcoumarins and their antibacterial, anticancer and DNA cleavage studies” (2015)
Activity calls are given as the source filed them. No cut-off for these calls is given here.

What was measured:
OVCAR-5 = assay: Cytotoxicity against human OVCAR5 cells assessed as cell growth level at 100 uM after 48 hrs by sulforhodamine B assay; format: functional
ACHN = assay: Cytotoxicity against human ACHN cells assessed as cell growth level at 100 uM after 48 hrs by sulforhodamine B assay; format: functional
DU-145 = assay: Cytotoxicity against human DU145 cells assessed as cell growth level at 100 uM after 48 hrs by sulforhodamine B assay; format: functional
T47D = assay: Cytotoxicity against human T47D cells assessed as cell growth level at 100 uM after 48 hrs by sulforhodamine B assay; format: functional
NCI-H23 [1] = assay: Cytotoxicity against human NCI-H23 cells assessed as cell growth level at 10 nM after 48 hrs by sulforhodamine B assay; format: functional
COLO 205 = assay: Cytotoxicity against human COLO205 cells assessed as cell growth level at 10 nM after 48 hrs by sulforhodamine B assay; format: functional
HCT-15 [2] = assay: Cytotoxicity against human HCT15 cells assessed as cell growth level at 10 nM after 48 hrs by sulforhodamine B assay; format: functional
SK-MEL-5 = assay: Cytotoxicity against human SK-MEL-5 cells assessed as cell growth level at 10 nM after 48 hrs by sulforhodamine B assay; format: functional
OVCAR-4 = assay: Cytotoxicity against human OVCAR4 cells assessed as cell growth level at 10 nM after 48 hrs by sulforhodamine B assay; format: functional
BT-549 [3] = assay: Cytotoxicity against human BT549 cells assessed as cell growth level at 10 nM after 48 hrs by sulforhodamine B assay; format: functional
K562 = assay: Cytotoxicity against human K562 cells assessed as cell growth level at 100 nM after 48 hrs by sulforhodamine B assay; format: functional
NCI-H23 [4] = assay: Cytotoxicity against human NCI-H23 cells assessed as cell growth level at 100 nM after 48 hrs by sulforhodamine B assay; format: functional
NCI-H322M [5] = assay: Cytotoxicity against human NCI-H322M cells assessed as cell growth level at 100 nM after 48 hrs by sulforhodamine B assay; format: functional
NCI-H460 = assay: Cytotoxicity against human NCI-H460 cells assessed as cell growth level at 100 nM after 48 hrs by sulforhodamine B assay; format: functional
HCT-116 = assay: Cytotoxicity against human HCT116 cells assessed as cell growth level at 100 nM after 48 hrs by sulforhodamine B assay; format: functional
OVCAR-8 = assay: Cytotoxicity against human OVCAR8 cells assessed as cell growth level at 100 nM after 48 hrs by sulforhodamine B assay; format: functional
[6] = Cytotoxicity against human NCI-ADR-RES cells assessed as cell growth level at 100 nM after 48 hrs by sulforhodamine B assay; format: functional
RXF 393 = assay: Cytotoxicity against human RXF393 cells assessed as cell growth level at 100 nM after 48 hrs by sulforhodamine B assay; format: functional
Bacillus subtilis = assay: Antibacterial activity against Bacillus subtilis assessed as bacterial growth inhibition at 50 ug/ml after 24 hrs by cup-plate agar diffusion method; format: functional; settings: read-out: IZ
CCRF-CEM [7] = assay: Cytotoxicity against human CCRF-CEM cells assessed as cell growth level at 10 uM after 48 hrs by sulforhodamine B assay; format: functional
HL-60(TB) [8] = assay: Cytotoxicity against human HL-60(TB) cells assessed as cell growth level at 10 uM after 48 hrs by sulforhodamine B assay; format: functional
A549 = assay: Cytotoxicity against human A549/ATCC cells assessed as cell growth level at 10 uM after 48 hrs by sulforhodamine B assay; format: functional
CCRF-CEM [9] = assay: Cytotoxicity against human CCRF-CEM cells assessed as cell growth level at 1 uM after 48 hrs by sulforhodamine B assay; format: functional
HL-60(TB) [10] = assay: Cytotoxicity against human HL-60(TB) cells assessed as cell growth level at 1 uM after 48 hrs by sulforhodamine B assay; format: functional
NCI-H23 [11] = assay: Cytotoxicity against human NCI-H23 cells assessed as cell growth level at 1 uM after 48 hrs by sulforhodamine B assay; format: functional
NCI-H322M [12] = assay: Cytotoxicity against human NCI-H322M cells assessed as cell growth level at 10 uM after 48 hrs by sulforhodamine B assay; format: functional
HCC 2998 = assay: Cytotoxicity against human HCC2998 cells assessed as cell growth level at 10 uM after 48 hrs by sulforhodamine B assay; format: functional
HCT-15 [13] = assay: Cytotoxicity against human HCT15 cells assessed as cell growth level at 10 uM after 48 hrs by sulforhodamine B assay; format: functional
SF-295 [14] = assay: Cytotoxicity against human SF295 cells assessed as cell growth level at 10 uM after 48 hrs by sulforhodamine B assay; format: functional
PC-3 [15] = assay: Cytotoxicity against human PC3 cells assessed as cell growth level at 10 uM after 48 hrs by sulforhodamine B assay; format: functional
SF-295 [16] = assay: Cytotoxicity against human SF295 cells assessed as cell growth level at 1 uM after 48 hrs by sulforhodamine B assay; format: functional
SK-MEL-28 = assay: Cytotoxicity against human SK-MEL-28 cells assessed as cell growth level at 1 uM after 48 hrs by sulforhodamine B assay; format: functional
PC-3 [17] = assay: Cytotoxicity against human PC3 cells assessed as cell growth level at 1 uM after 48 hrs by sulforhodamine B assay; format: functional
BT-549 [18] = assay: Cytotoxicity against human BT549 cells assessed as cell growth level at 1 uM after 48 hrs by sulforhodamine B assay; format: functional
MDA-MB-468 = assay: Cytotoxicity against human MDA-MB-468 cells assessed as cell growth level at 1 uM after 48 hrs by sulforhodamine B assay; format: functional
RPMI-8226 = assay: Cytotoxicity against human RPMI8226 cells assessed as cell growth level at 100 uM after 48 hrs by sulforhodamine B assay; format: functional
SR [19] = assay: Cytotoxicity against human SR cells assessed as cell growth level at 100 uM after 48 hrs by sulforhodamine B assay; format: functional
BT-549 [20] = assay: Cytotoxicity against human BT549 cells assessed as cell growth level at 10 uM after 48 hrs by sulforhodamine B assay; format: functional
HT-29 = assay: Cytotoxicity against human HT-29 cells after 48 hrs by sulforhodamine B assay; format: functional; settings: HT-29, 48 h
[21] = Cytotoxicity against human Hs 578T cells after 48 hrs by sulforhodamine B assay; format: functional
BT-549 [22] = assay: Cytotoxicity against human BT549 cells after 48 hrs by sulforhodamine B assay; format: functional; settings: BT-549, 48 h
Escherichia coli = assay: Induction of DNA cleavage of Escherichia coli pUC18 plasmid DNA at 50 ug/ml after 2 hrs by agarose gel elctrophoresis method
SR [23] = assay: Cytotoxicity against human SR cells assessed as cell growth level at 10 nM after 48 hrs by sulforhodamine B assay; format: functional
[24] = read-out: LC50 (the source's name)
[25] = read-out: pLC50 (the source's name) (converted)

Molecule O=c1oc2ccccc2cc1-c1csc(N/N=C/c2c[nH]c3ccccc23)n1 has an Activity (OVCAR-5) of -36%, an Activity (ACHN) of -45% and an Activity (DU-145) of -2%. For the same molecule, the Activity (T47D) was -35%, the Activity (NCI-H23 [1]) was 86% and the Activity (COLO 205) was 110%. It also gave an Activity (HCT-15 [2]) of 95%, an Activity (SK-MEL-5) of 96% and an Activity (OVCAR-4) of 90%. It also gave an Activity (BT-549 [3]) of 95%, an Activity (K562) of 110% and an Activity (NCI-H23 [4]) of 88%. For the same molecule, the Activity (NCI-H322M [5]) was 102%, the Activity (NCI-H460) was 93% and the Activity (HCT-116) was 91%. It also gave an Activity (OVCAR-8) of 107%, an Activity [6] of 110% and an Activity (RXF 393) of 93%. It also gave a zone of inhibition at 50 µg/mL (Bacillus subtilis) of 18 mm, an Activity (CCRF-CEM [7]) of -26.91% and an Activity (HL-60(TB) [8]) of -28.24%. For the same molecule, the Activity (A549) was -30.98%, the Activity (CCRF-CEM [9]) was 7% and the Activity (HL-60(TB) [10]) was 26%. It also gave an Activity (NCI-H23 [11]) of 83%, an Activity (NCI-H322M [12]) of 15.29% and an Activity (HCC 2998) of 8.49%. The Activity (HCT-15 [13]) was 12.32%, the Activity (SF-295 [14]) was -25.04% and the Activity (PC-3 [15]) was -37.33%. It also gave an Activity (SF-295 [16]) of 80%, an Activity (SK-MEL-28) of 93% and an Activity (PC-3 [17]) of 84%. For the same molecule, the Activity (BT-549 [18]) was 58%, the Activity (MDA-MB-468) was 72% and the Activity (RPMI-8226) was -41%. The Activity (SR [19]) was -46%, the Activity (BT-549 [20]) was -12.14% and the GI50 (HT-29; read-out: GI50) was 2.01 µM. It also gave a CC50 (HT-29; [24]) greater than 100 µM, a TGI (HT-29; read-out: TGI) of 5.55 µM and a GI50 (HT-29; read-out: pGI50 (converted)) of 2 µM. For the same molecule, the CC50 (HT-29; [25]) was greater than 100 µM, the TGI (HT-29; read-out: pTGI (converted)) was 5.5 µM and the GI50 ([21]; read-out: GI50) was 3.2 µM. The CC50 [21, 24] was greater than 100 µM, the TGI ([21]; read-out: TGI) was 58.9 µM and the GI50 ([21]; read-out: pGI50 (converted)) was 3.16 µM. For the same molecule, the CC50 [21, 25] was greater than 100 µM, the TGI ([21]; read-out: pTGI (converted)) was 58.9 µM and the GI50 (BT-549 [22]; read-out: GI50) was 1.13 µM. For the same molecule, the CC50 (BT-549 [22]; [24]) was 5.22 µM, the TGI (BT-549 [22]; read-out: TGI) was 2.43 µM and the GI50 (BT-549 [22]; read-out: pGI50 (converted)) was 1.12 µM. For the same molecule, the CC50 (BT-549 [22]; [25]) was 5.25 µM, the TGI (BT-549 [22]; read-out: pTGI (converted)) was 2.45 µM and the Activity (Escherichia coli) was “Active”. The Activity (SR [23]) was 94%.
